In brackets after ≈: the same amount, converted by molar mass. Where a name gives a salt, the structure may show the parent alone. Read-outs that look alike come from different tables or passages of the source.
Experiment: Solubility of the active ingredients in water
Type: physicochemical
Conditions: thermodynamic from solid
Experimental: The invention is suitable for active ingredients which have a solubility in water of at least 10 g/l, preferably at least 30 g/l, particularly preferably of at least 50 g/l, especially preferably of at least 100 g/l, 200 g/l, 300 g/l or 400 g/l at 20° C. (solubility in water based on standard methods such as, for example, Pharmeuropa—Technical Guide for the Elaboration of Monographs, 3rd Edition (1999), Chapter IV, Appendix IV (incorporated by reference) with vigorous shaking for 1 min, leaving to stand for 15 min at 20° C. in purified water). These ranges include all intermediate values and subranges.

Row | solubility at 15 min (20 °C) | SMILES | solubility at 15 min (at 20° C., Pharmeuropa Technical Guide method, shaking for 15 min, read-out: solubility in water)
1 | 500 mg/mL | CNC[C@H](O)c1cccc(O)c1 [Phenylephrine hydrochloride] | 
2 | 500 mg/mL | CC(C)(C)NCC(O)c1cc(O)cc(O)c1 (stereo not drawn) [Terbutaline sulphate] | 
3 |  | Cn1c(=O)c2[nH]cnc2n(C)c1=O [Theophylline] | 8.4 mg/mL (≈ 46.6 mM)
